Experimental data: patent US12551499B2 (Atea Pharmaceuticals, Inc., priority 2020, dated 2026)
Read-outs that look alike come from different tables or passages of the source.

Tests used:
[1] = test system: human bronchial epithelial cells; settings: 10 μM
RSV = settings: RSV-infected HAE cells; read-out: in vitro EC90; cited from earlier work
[2] = test system: human nasal epithelial cells; settings: 10 μM
[3] = Plasma PK in non-human primates after oral Compound 2A; settings: monkey plasma, oral Compound 2A 60 mg/kg then 30 mg/kg every 12 h, steady state
HCV = settings: HCV-infected subjects, up to 12 weeks; cited from earlier work
[4] = test system: human airway epithelial (HAE) cells
SARS-CoV-2 (WA1) = assay: Virus yield reduction assay, SARS-CoV-2 in dNHBE / HAE cells; assay type: cell-based
Experimental: The antiviral activity of Compound 1A was next evaluated against SARS-CoV-2 (WA1) using differentiated normal human bronchial epithelial (dNHBE; HAE (human airway epithelial) cells made to order by MatTek Corporation (Ashland, MA).
Cell Culture: dNHBE cells were grown on 6 mm mesh disks and arrived in kits with either 12- or 24-well transwell inserts. During transportation the tissues were stabilized on a sheet of agarose, which was removed upon receipt. One insert was estimated to consist of approximately 1.2×10^6 cells. Kits of cell inserts (EpiAirway™ AIR-100, AIR-112) originated from a single donor, #9831, a healthy, non-smoking person. The cells have unique properties in forming layers, the apical side of which is exposed only to air and that creates a mucin layer. Upon arrival, the cell transwell inserts were immediately transferred to individual wells of a 6-well plate according to manufacturer's instructions, and 1 mL of MatTek's proprietary culture medium (AIR-100-MM) was added to the basolateral side, whereas the apical side was exposed to a humidified 5% CO2 environment. Cells were cultured at 37° C. for one day before the start of the experiment. After the 24 hour equilibration period, the mucin layer, secreted from the apical side of the cells, was removed by washing with 400 μL pre-warmed 30 mM HEPES buffered saline solution 3×. Culture medium was replenished following the wash steps.
Viruses: Virus was diluted in AIR-100-MM medium before infection, yielding a multiplicity of infection (MOI) of approximately 0.0015 CCID50 per cell.
The cells were maintained at the air-liquid interface.
Determination of virus titers from each treated cell culture: Vero 76 cells were seeded in 96-well plates and grown overnight (37° C.) to confluence. Samples containing virus were diluted in 10-fold increments in infection medium and 200 μL of each dilution transferred into respective wells of a 96-well microtiter plate. Four microwells were used for each dilution to determine 50% viral endpoints. After 5 days of incubation, each well was scored positive for virus if any cytopathic effect (CPE) was observed as compared with the uninfected control and counts were confirmed for endpoint on days 6 and 7. […] The day 5 values were reported. Untreated, uninfected cells were used as the cell controls.
The antiviral activities of test compounds were evaluated against SARS-CoV-2 (USA-WA1/2020) using made to order human airway epithelial (HAE) cells.
Cell Culture: HAE cells were grown on 6 mm mesh disks and arrived in kits with either 12- or 24-well transwell inserts. During transportation the tissues were stabilized on a sheet of agarose, which was removed upon receipt. One insert was estimated to consist of approximately 1.2×10^6 cells. Kits of cell inserts (EpiAirway™ AIR-100 or AIR-112) originated from a single donor, #9831, a healthy, non-smoking person. The cells form polarized monolayers, the apical side of which is exposed to air and creates a mucin layer. Upon arrival, the cell transwell inserts were immediately transferred to individual wells of a 6-well plate according to the manufacturer's instructions, and 1 mL of MatTek's proprietary culture medium (AIR-100-MM) was added to the basolateral side, whereas the apical side was exposed to a humidified 5% CO2 environment. Cells were cultured at 37° C. in a humidified atmosphere containing 5% CO2 for one day before the start of the experiment. After the 24-h equilibration period, the mucin layer, secreted from the apical side of the cells, was removed by washing with 400 μL pre-warmed 30 mM HEPES buffered saline solution 3×. Culture medium was replenished following the wash steps.
Viruses: Virus was diluted in AIR-100-MM medium before infection to yield a MOI when added to cultures of approximately 0.0015 CCID50 per cell.
Select compounds of the present invention were tested in a SARS-CoV-2 assay. […]

in vitro = settings: human
[5] = Severe acute respiratory syndrome coronavirus 2, HAE, SARS-CoV-2 in HAE (dNHBE) cells, Table 11, read-out: VYR Assay EC90
[6] = Severe acute respiratory syndrome coronavirus 2, HAE, SARS-CoV-2, Table 11B, read-out: VYR Assay EC90

## Nc1ccn([C@@H]2O[C@@](CO)(CCl)[C@@H](O)[C@H]2F)c(=O)n1 [ALS-8112, reference compound]
[1]; 8 h
  ratio of triphosphate from Compound 1A vs. comparator: 2
[1]; 15 h
  ratio of triphosphate from Compound 1A vs. comparator: 5
RSV
  EC90: 1.3 to 2.7 µM
[2]; 8 h
  ratio of triphosphate from Compound 1A vs. comparator: 1
[2]; 15 h
  ratio of triphosphate from Compound 1A vs. comparator: 3

## C[C@@]1(F)[C@H](O)[C@@H](CO)O[C@H]1n1cnc2c(=O)[nH]c(N)nc21 [Compound 1-7, 2-amino-9-((2R,3R,4R,5R)-3-fluoro-4-hydroxy-5-(hydroxymethyl)-3-methyltetrahydrofuran-2-yl)-1,9-dihydro-6H-purin-6-one]
[3]
  Cmax: 160 nM
  Tmax: 2 h

## CNc1nc(N)nc2c1ncn2[C@@H]1O[C@H](CO[P@@](=O)(N[C@@H](C)C(=O)OC(C)C)Oc2ccccc2)[C@@H](O)[C@@]1(C)F [Compound 2A]
HCV
  safety and tolerability: safe and well-tolerated

## [2H]C([2H])([2H])[C@@]1(F)[C@H](O)[C@@H](CO[P@@](=O)(N[C@@H](C)C(=O)OC(C)C)Oc2ccccc2)O[C@H]1n1cnc2c(NC)nc(N)nc21 [Compound 5, Isopropyl ((S)-(((2R,3R,4R,5R)-5-(2-amino-6-(methylamino)-9H-purin-9-yl)-4-fluoro-3-hydroxy-4-methyltetrahydrofuran-2-yl)methoxy)(phenoxy)phosphoryl)-L-alaninate]
[4]
  VYR Assay CC50: no visual tox
SARS-CoV-2 (WA1); [5]
  EC90: 0.31 µM

## CNc1nc(N)nc2c1ncn2[C@@H]1O[C@H](CO[P@@](=O)(N[C@@H](C)C(=O)OC(C)C)Oc2ccccc2)[C@@H](O)[C@]1(F)CF [Compound 6, Isopropyl ((S)-(((2R,3R,4R,5R)-5-(2-amino-6-(methylamino)-9H-purin-9-yl)-4-fluoro-4-(fluoromethyl)-3-hydroxytetrahydrofuran-2-yl)methoxy)(phenoxy)phosphoryl)-L-alaninate]
[4]
  VYR Assay CC50: no visual tox
SARS-CoV-2 (WA1); [5]
  EC90: 1.8 µM

## C#C[C@@]1(F)[C@H](O)[C@@H](CO[P@@](=O)(N[C@@H](C)C(=O)OC(C)C)Oc2ccccc2)O[C@H]1n1cnc2c(NC)nc(N)nc21 [Compound 7, Isopropyl ((S)-(((2R,3R,4R,5R)-5-(2-amino-6-(methylamino)-9H-purin-9-yl)-4-ethynyl-4-fluoro-3-hydroxytetrahydrofuran-2-yl)methoxy)(phenoxy)phosphoryl)-L-alaninate]
[4]
  VYR Assay CC50: no visual tox
SARS-CoV-2 (WA1); [5]
  EC90: 3.2 µM

## C=C[C@@]1(F)[C@H](O)[C@@H](CO[P@@](=O)(N[C@@H](C)C(=O)OC(C)C)Oc2ccccc2)O[C@H]1n1cnc2c(NC)nc(N)nc21 [Compound 8, Isopropyl ((S)-(((2R,3R,4R,5R)-5-(2-amino-6-(methylamino)-9H-purin-9-yl)-4-fluoro-3-hydroxy-4-vinyltetrahydrofuran-2-yl)methoxy)(phenoxy)phosphoryl)-L-alaninate]
[4]
  VYR Assay CC50: no visual tox
SARS-CoV-2 (WA1); [5]
  EC90: 6.4 µM

## CNc1nc(N)nc2c1ncn2[C@@H]1O[C@H](CO[P@@](=O)(N[C@@H](C)C(=O)OC(C)C)Oc2ccccc2)[C@@H](O)[C@]1(F)CO [Compound 9, Isopropyl ((S)-(((2R,3R,4R,5R)-5-(2-amino-6-(methylamino)-9H-purin-9-yl)-4-fluoro-3-hydroxy-4-(hydroxymethyl)tetrahydrofuran-2-yl)methoxy)(phenoxy)phosphoryl)-L-alaninate]
[4]
  VYR Assay CC50: no visual tox
SARS-CoV-2 (WA1); [5]
  EC90: 8.5 µM

## CC(C)OC(=O)[C@H](C)NP(=O)(OC[C@H]1O[C@@H](n2cnc3c(NC4CC4)nc(N)nc32)[C@@](F)(CO)[C@@H]1O)Oc1ccccc1 (stereo partly drawn) [Compound 10, Isopropyl ((((2R,3R,4R,5R)-5-(2-amino-6-(cyclopropylamino)-9H-purin-9-yl)-4-fluoro-3-hydroxy-4-(hydroxymethyl)tetrahydrofuran-2-yl)methoxy)(phenoxy)phosphoryl)-L-alaninate]
[4]
  VYR Assay CC50: no visual tox
SARS-CoV-2 (WA1); [5]
  EC90: 5.3 µM

## CNc1nc(N)nc2c1ncn2[C@@H]1O[C@H](CO[P@@](=O)(N[C@@H](C)C(=O)OC(C)C)Oc2ccccc2)[C@@H](O)[C@]1(F)C(F)(F)F [Compound 11A]
[4]
  VYR Assay CC50: no visual tox
SARS-CoV-2 (WA1); Severe acute respiratory syndrome coronavirus 2, HAE, read-out: VYR Assay EC90, SARS-CoV-2 in HAE (dNHBE) cells, Table 11
  EC90: 3.7 µM

## Cc1nc2nccnc2n1[C@@H]1O[C@H](COP(=O)(N[C@@H](C)C(=O)OC(C)C)Oc2ccccc2)[C@@H](O)[C@]1(F)C(F)(F)F (stereo partly drawn) [Compound 12]
SARS-CoV-2 (WA1); [6]
  EC90: 1.5 µM

## Cc1ncc2ncn([C@@H]3O[C@H](COP(=O)(N[C@@H](C)C(=O)OC(C)C)Oc4ccccc4)[C@@H](O)[C@]3(F)C(F)(F)F)c2n1 (stereo partly drawn) [Compound 13]
SARS-CoV-2 (WA1); [6]
  EC90: 3.2 µM

## CC(C)OC(=O)[C@H](C)NP(=O)(OC[C@H]1O[C@@H](Oc2ncc(Br)nc2C(N)=O)[C@@](F)(C(F)(F)F)[C@@H]1O)Oc1ccccc1 (stereo partly drawn) [Compound 14]
SARS-CoV-2 (WA1); [6]
  EC90: 0.57 µM

## CC(C)OC(=O)[C@H](C)N[P@](=O)(OC[C@H]1O[C@@](C#N)(n2ncc3c(N)ncnc32)[C@H](F)[C@@H]1O)Oc1ccccc1 [Compound 15]
SARS-CoV-2 (WA1); [6]
  EC90: 1.1 µM

## O=c1nc(NO)ccn1[C@@H]1O[C@H](CO)[C@@H](O)[C@H]1O [N^4-hydroxycytidine, reference compound]
SARS-CoV-2 (WA1); SARS-CoV-2 in HAE, Table 5
  Selectivity Index (CC50/EC90): >5.1
SARS-CoV-2 (WA1); SARS-CoV-2 in HAE, footnotes f, g, h of Table 5, read-out: EC90, single replicates
  EC90: 3.1 µM
SARS-CoV-2 (WA1); SARS-CoV-2 in HAE, same experiment
  potency relative to Compound 1A (times less): 8 times

## CC(C)OC(=O)[C@H](C)N[P@](=O)(OC[C@H]1O[C@@H](n2ccc(=O)[nH]c2=O)[C@](C)(F)[C@@H]1O)Oc1ccccc1 [Sofosbuvir, reference compound]
[4]
  VYR Assay CC50: no visual tox
SARS-CoV-2 (WA1); [5]
  EC90: > 19 µM

## CCN(CC)CCCC(C)Nc1ccnc2cc(Cl)ccc12 (stereo not drawn) [chloroquine]
In vitro
  CC50: 21 µM

## CCN(CCO)CCCC(C)Nc1ccnc2cc(Cl)ccc12 (stereo not drawn) [hydroxychloroquine]
In vitro
  CC50: 26 µM
